What was measured:
[1] = system: MC903-induced atopic dermatitis (AD); assay: MC903-induced ear atopic dermatitis mouse model, Compound 1 ointment: ear thickness and dermatitis score; format: in vivo, mice; settings: for ear thickness: 1% ointment
Protocol: Weigh white petrolatum, light liquid paraffin, glyceryl monostearate, ethylparaben, and cetyl alcohol. Heat to 65 °C while stirring until dissolved. Slowly add the dissolved active pharmaceutical ingredient (API) while continuing to stir until uniformly mixed. Set aside. • (2) Aqueous Phase Preparation: […] Slowly add the aqueous phase to the oil phase while maintaining 65 °C, homogenize, and continue stirring for 30 min; • (4) Cooling: Stop heating, continue stirring, gradually reduce to room temperature, cool to form an ointment, and fill containers. […] Dissolve these substances in a small amount of propylene glycol, then place the resulting solution into the aforementioned pre-cooled blank ointment base. […] Skin Lesion Severity Score: […] Statistical analysis was performed on the data.

[2] = system: inflammatory factors Tslp, Tnf and Th2-associated factors Il4, Il13, Il31; assay: MC903-induced ear atopic dermatitis mouse model, oral Compound 20: Q-PCR of ear; settings: ear mRNA, AD mice, 5 mg/kg
[3] = system: MC903-induced atopic dermatitis (AD); assay: MC903-induced AD model on the dorsum of mice, Compound 1 ointment: skin thickness and dermatitis score; format: in vivo; parameters: Skin thickness: unit not given here
Protocol: Weigh white petrolatum, light liquid paraffin, glyceryl monostearate, ethylparaben, and cetyl alcohol. Heat to 65 °C while stirring until dissolved. Slowly add the dissolved active pharmaceutical ingredient (API) while continuing to stir until uniformly mixed. Set aside. • (2) Aqueous Phase Preparation: […] Slowly add the aqueous phase to the oil phase while maintaining 65 °C, homogenize, and continue stirring for 30 min; • (4) Cooling: Stop heating, continue stirring, gradually reduce to room temperature, cool to form an ointment, and fill containers. […] Dissolve these substances in a small amount of propylene glycol, then place the resulting solution into the aforementioned pre-cooled blank ointment base. […] Establishment of the AD Model on the Dorsum of Mice and Drug Administration: […] Except for the Normal group, all other groups underwent AD modeling: 48 hours prior to the experiment, hair on the dorsal neck region was meticulously removed using clippers and depilatory cream. […] Model and control group mice received daily application of blank ointment. Twenty-four hours after completing the 14-day modeling period, photographs of skin lesions were taken, and skin lesion and blood samples were collected. Skin Lesion Severity Score: […] Statistical analysis was performed on the data.

[4] = system: MC903-induced atopic dermatitis (AD); assay: MC903-induced ear atopic dermatitis mouse model, oral Compound 20: dermatitis score, ear thickness, serum IgE; settings: 5 mg/kg
[5] = system: inflammatory cytokines (TNF, IL-6, IL-1); assay: LPS mouse sepsis model: Q-PCR of inflammatory factor mRNA in lung, liver and kidney; format: in vivo, C57BL/6 mice; settings: sepsis mice, 5 mg/kg
Description: Gently pipette to mix the above reagents. The reaction conditions are as follows:
Detailed information is as follows:

[6] = system: Rat mast cells (RBL-2H3); assay: Mast cell degranulation test (anti-DNP IgE / DNP-HSA); format: cell-based; settings: RBL-2H3, IgE+HSA, 4 h, 1 µM
Protocol: Rat mast cells (RBL-2H3) were cultured routinely in DMEM medium containing 10% FBS within a 5% CO2 incubator. Upon reaching 70-80% confluence, cells were uniformly seeded at a density of 1 × 10^5 cells/mL into 6-well plates (2 mL per well), divided into the following groups: Normal, IgE+HSA, Compound 1 (0.01, 0.1, 1, 10 µM). Mast cells were sensitized with 500 µg/L anti-DNP IgE for 12 h. washed with PBS, and cultured for an additional 12 h with 100 µg/L DNP-HSA. Compound 1 at the specified concentrations was then added. […]

[7] = system: Th2-related factors Il4, Il13, Il31 and inflammatory factors Tslp, Tnf, Il1; assay: MC903-induced ear atopic dermatitis mouse model, Compound 1 ointment: Q-PCR of ear; format: in vivo; parameters: unit not given here; settings: ear mRNA, AD mice, 1% ointment
Protocol: Except for the Normal group, all other groups underwent AD modeling: 20 µL of MC903 solution (also known as calcipotriol, purchased from Shanghai Yuanye Biotechnology Co., Ltd., used for inducing atopic models) was applied to each mouse's ears once daily for 14 consecutive days to induce the atopic dermatitis model. […] Measure ear thickness changes every 2 days using an electronic caliper before modeling and after treatment initiation.

[8] = system: Human keratinocytes (Hacat); assay: Hyaluronic acid and hyaluronidase levels in UVB-irradiated human keratinocytes; format: cell-based; settings: UVB 90 mJ/cm^2, 24 h, 1 µM
Protocol: Human keratinocytes (Hacat) were cultured routinely in DMEM medium containing 10% FBS within a 5% CO2 incubator.

C[C@@H]1C[C@H]2[C@@H]3CCC4=CC(=O)C=C[C@]4(C)[C@@]3(F)[C@@H](O)C[C@]2(C)[C@@]1(O)C(=O)CO [Dex, Dexamethasone, reference compound]
ear thickness ([1]; Day 1): 0.15±0.00 mm | ear thickness ([1]; Day 3): 0.18±0.00 mm | ear thickness ([1]; Day 5): 0.22±0.00 mm | ear thickness ([1]; Day 7): 0.24±0.01 mm | ear thickness ([1]; Day 8): 0.24±0.00 mm | ear thickness ([1]; Day 9): 0.24±0.01 mm | ear thickness ([1]; Day 10): 0.25±0.01 mm | ear thickness ([1]; Day 11): 0.26±0.01 mm | ear thickness ([1]; Day 12): 0.28±0.00 mm | ear thickness ([1]; Day 13): 0.27±0.01 mm | ear thickness ([1]; Day 14): 0.26±0.01 mm | Dermatitis Score ([1]; ear, 1% ointment for 7 days, score max 12): 3.50±0.22 | TSLP [2]: 2.13±0.26 | Tnf [2]: 2.30±0.36 | Dermatitis Score ([3]; back, 1% ointment for 7 days, score max 12): 4.17±0.31 | Skin thickness ([3]; dorsal region, AD mice, 1% ointment): 30.44±0.62 | atopic dermatitis score ([4]; Day 1): 0.00±0.00 | ear thickness ([4]; Day 1): 0.20±0.00 mm | atopic dermatitis score ([4]; Day 3): 0.67±0.21 | ear thickness ([4]; Day 3): 0.23±0.00 mm | atopic dermatitis score ([4]; Day 5): 1.50±0.22 | ear thickness ([4]; Day 5): 0.25±0.00 mm | atopic dermatitis score ([4]; Day 7): 2.00±0.26 | ear thickness ([4]; Day 7): 0.26±0.00 mm | atopic dermatitis score ([4]; Day 8): 2.83±0.31 | ear thickness ([4]; Day 8): 0.26±0.00 mm | atopic dermatitis score ([4]; Day 9): 3.00±0.00 | ear thickness ([4]; Day 9): 0.27±0.00 mm | atopic dermatitis score ([4]; Day 10): 3.17±0.17 | ear thickness ([4]; Day 10): 0.28±0.00 mm | atopic dermatitis score ([4]; Day 11): 3.50±0.22 | ear thickness ([4]; Day 11): 0.27±0.00 mm | atopic dermatitis score ([4]; Day 12): 3.00±0.26 | ear thickness ([4]; Day 12): 0.27±0.00 mm | atopic dermatitis score ([4]; Day 13): 2.67±0.21 | ear thickness ([4]; Day 13): 0.27±0.00 mm | atopic dermatitis score ([4]; Day 14): 2.00±0.26 | ear thickness ([4]; Day 14): 0.26±0.00 mm | IgE ([4]; serum, AD mice): 191.65 ± 39.26 ng/mL | Tnf ([5]; kidney mRNA (relative, Gapdh)): 6.62±0.68 | Tnf ([5]; liver mRNA (relative, Gapdh)): 7.04±0.77 | Tnf ([5]; lung mRNA (relative, Gapdh)): 8.99 ± 0.76 | β-Glucosaminidase [6]: 9.78 ± 0.01 ng/mL | TSLP [7]: 1.30 ±0.17 | Tnf [7]: 1.38 ±0.22 | Hyaluronidase [8]: 87.14 ± 9.63 ng/mL
